{"source": "patent US4137241A", "about": "“Deoxy-(0-8)-epi-17-salinomycin (1)” (priority 1977, dated 1979)", "key": {"DOCA Na rat": {"test_system": "DOCA Na rat", "test": "Antihypertensive activity in the DOCA Na rat, five-day oral dosing, systolic blood pressure", "format": "in vivo", "procedure": "(§1) A test was conducted for antihypertensive activity in the DOCA Na rat. DOCA rats weighing 170 to 210 grams are used in the test. DOCA Na Hypertension is induced by unilateral nephrectomy followed by subcutaneous implantation of a 25 mg. desoxycorticosterone (DOCA) pellet. Animals are placed in individual cages receiving 0.9% sodium chloride solution to drink and rat chow diet ad libitum. Two weeks are allowed to elapse from the time of surgery for development of hypertension, i.e., systolic blood pressure of at least 150 mmHg.\n(§2) Systolic blood pressure and heart rate are measured indirectly from the tail pressure pulse of unanesthetized rats, using a pneumatic pulse transducer. Control readings are taken prior to drug and post drug readings are taken at 1, 3, 6 and 24 hours.\nThe experimental results are represented as absolute values. Drug-related alterations in systolic blood pressure are expressed as percentage change by comparing control absolute values with post drug absolute values. Compounds are considered active when about a 15% or greater reduction in blood pressure is obtained. However, the reduction in blood pressure must show mathematical significance ([…]).\nA derivative of the polyether ionophore, lasalocid, i.e., the bromo derivative of lasalocid, was tested in the above screen. The compound was orally administered for a five-day period by intubation and thereafter dosing was discontinued but blood pressure monitoring was continued. The following table illustrates the results obtained utilizing bromolasalocid as the test drug."}, "Actinomyces cellulosae": {"test_system": "Actinomyces cellulosae", "test": "Antimicrobial spectrum, agar diffusion technique", "format": "cell-based", "settings": "Streptomyces cellulosae", "excerpt": "(§3) M.I.C. Values in mcg/ml utilizing the\n(§4) Test Organism agar diffusion technique"}, "Bacillus megaterium": {"test_system": "Bacillus megaterium", "test": "Antimicrobial spectrum, agar diffusion technique", "format": "cell-based", "settings": "Priestia megaterium", "excerpt": "as §3, §4"}, "Bacillus sp. E": {"test_system": "Bacillus sp. E", "test": "Antimicrobial spectrum, agar diffusion technique", "format": "cell-based", "excerpt": "as §3, §4"}, "Bacillus sp. TA": {"test_system": "Bacillus sp. TA", "test": "Antimicrobial spectrum, agar diffusion technique", "format": "cell-based", "excerpt": "as §3, §4"}, "Bacillus subtilis": {"test_system": "Bacillus subtilis", "test": "Antimicrobial spectrum, agar diffusion technique", "format": "cell-based", "excerpt": "as §3, §4"}, "Candida albicans": {"test_system": "Candida albicans", "test": "Antimicrobial spectrum, agar diffusion technique", "format": "cell-based", "excerpt": "as §3, §4"}, "Mycobacterium phlei": {"test_system": "Mycobacterium phlei", "test": "Antimicrobial spectrum, agar diffusion technique", "format": "cell-based", "settings": "Mycolicibacterium phlei", "excerpt": "as §3, §4"}, "Paecilomyces varioti": {"test_system": "Paecilomyces varioti", "test": "Antimicrobial spectrum, agar diffusion technique", "format": "cell-based", "excerpt": "as §3, §4"}, "Sarcina lutea": {"test_system": "Sarcina lutea", "test": "Antimicrobial spectrum, agar diffusion technique", "format": "cell-based", "settings": "Micrococcus luteus", "excerpt": "as §3, §4"}, "Staphylococcus aureus": {"test_system": "Staphylococcus aureus", "test": "Antimicrobial spectrum, agar diffusion technique", "format": "cell-based", "excerpt": "as §3, §4"}, "DOCA-Na. rat": {"test_system": "DOCA-Na. rat", "test": "Subacute antihypertensive activity in the DOCA-Na rat versus bromolasalocid (AHR, onset, duration)", "format": "in vivo", "procedure": "as §1, §2\nThe experimental results are represented as absolute values. Drug-related alterations in systolic blood pressure are expressed as percentage change by comparing control absolute values with post drug absolute values. […] However, the reduction in blood pressure must show mathematical significance ([…]).\nUsing bromolasalocid as a standard for comparison, a number of the novel episalinomycin of the present invention was tested for antihypertensive activity. The tests were conducted utilizing single oral dosages in the DOCA-Na. rat over a five-day period with dosing discontinued thereafter. Blood pressure monitoring was carried out for the five-day period and daily after cessation of dosing until blood pressure returned to predrug levels. […] The antihypertensive activity expressed as AHR (Subacute antihypertensive ratio) was calculated using bromolasalocid as the standard reference (Table III)."}, "[1]": {"test": "Oral (per os) toxicity (LD50)", "settings": "in vivo"}, "[2]": {"settings": "daily oral dose 1/100 of LD50 up to 10 mg/kg/day, five days"}}}
{"smiles": "CC[C@@H](C(=O)[C@@H](C)[C@@H](O)[C@H](C)CCc1c(Br)cc(C)c(O)c1C(=O)O)[C@H]1O[C@](CC)([C@H]2CC[C@](O)(CC)[C@H](C)O2)C[C@@H]1C", "note": "[Bromolasalocid]", "values": [{"measurement": "Average Systolic Blood Pressure Per Group", "setting": "DOCA Na rat; 5 mg/kg per day oral for 5 days, Day 1 pm, pre-drug control (Day 1 am) 209", "result": 193, "unit": "mmHg"}, {"measurement": "Average Systolic Blood Pressure Per Group", "setting": "DOCA Na rat; 5 mg/kg per day oral for 5 days, Day 2 am, pre-drug control 209", "result": 206, "unit": "mmHg"}, {"measurement": "Average Systolic Blood Pressure Per Group", "setting": "DOCA Na rat; 5 mg/kg per day oral for 5 days, Day 2 pm, pre-drug control 209", "result": 194, "unit": "mmHg"}, {"measurement": "Average Systolic Blood Pressure Per Group", "setting": "DOCA Na rat; 5 mg/kg per day oral for 5 days, Day 3 am, pre-drug control 209", "result": 204, "unit": "mmHg"}, {"measurement": "Average Systolic Blood Pressure Per Group", "setting": "DOCA Na rat; 5 mg/kg per day oral for 5 days, Day 3 pm, pre-drug control 209", "result": 191, "unit": "mmHg"}, {"measurement": "Average Systolic Blood Pressure Per Group", "setting": "DOCA Na rat; 5 mg/kg per day oral for 5 days, Day 4 am, pre-drug control 209", "result": 206, "unit": "mmHg"}, {"measurement": "Average Systolic Blood Pressure Per Group", "setting": "DOCA Na rat; 5 mg/kg per day oral for 5 days, Day 4 pm, pre-drug control 209", "result": 201, "unit": "mmHg"}, {"measurement": "Average Systolic Blood Pressure Per Group", "setting": "DOCA Na rat; 5 mg/kg per day oral for 5 days, Day 5 am, pre-drug control 209", "result": 197, "unit": "mmHg"}, {"measurement": "Average Systolic Blood Pressure Per Group", "setting": "DOCA Na rat; 5 mg/kg per day oral for 5 days, Day 5 pm, pre-drug control 209", "result": 196, "unit": "mmHg"}, {"measurement": "Average Systolic Blood Pressure Per Group", "setting": "DOCA Na rat; 10 mg/kg per day oral for 5 days, Day 1 pm, p < .05, pre-drug control (Day 1 am) 217", "result": 192, "unit": "mmHg"}, {"measurement": "Average Systolic Blood Pressure Per Group", "setting": "DOCA Na rat; 10 mg/kg per day oral for 5 days, Day 2 am, p < .05, pre-drug control 217", "result": 181, "unit": "mmHg"}, {"measurement": "Average Systolic Blood Pressure Per Group", "setting": "DOCA Na rat; 10 mg/kg per day oral for 5 days, Day 2 pm, p < .05, pre-drug control 217", "result": 166, "unit": "mmHg"}, {"measurement": "Average Systolic Blood Pressure Per Group", "setting": "DOCA Na rat; 10 mg/kg per day oral for 5 days, Day 3 am, p < .05, pre-drug control 217", "result": 171, "unit": "mmHg"}, {"measurement": "Average Systolic Blood Pressure Per Group", "setting": "DOCA Na rat; 10 mg/kg per day oral for 5 days, Day 3 pm, p < .05, pre-drug control 217", "result": 163, "unit": "mmHg"}, {"measurement": "Average Systolic Blood Pressure Per Group", "setting": "DOCA Na rat; 10 mg/kg per day oral for 5 days, Day 4 am, p < .05, pre-drug control 217", "result": 173, "unit": "mmHg"}, {"measurement": "Average Systolic Blood Pressure Per Group", "setting": "DOCA Na rat; 10 mg/kg per day oral for 5 days, Day 4 pm, p < .05, pre-drug control 217", "result": 157, "unit": "mmHg"}, {"measurement": "Average Systolic Blood Pressure Per Group", "setting": "DOCA Na rat; 10 mg/kg per day oral for 5 days, Day 5 am, p < .05, pre-drug control 217", "result": 176, "unit": "mmHg"}, {"measurement": "Average Systolic Blood Pressure Per Group", "setting": "DOCA Na rat; 10 mg/kg per day oral for 5 days, Day 5 pm, p < .05, pre-drug control 217", "result": 166, "unit": "mmHg"}, {"measurement": "Period blood pressure remained below control after drug dosing", "setting": "DOCA Na rat; after dosing for the first five consecutive days", "result": 10, "unit": "days"}]}
{"smiles": "CCC(C(=O)O)C1CCC(C)C(C(C)C(O)C(C)C(=O)C(CC)C2OC3(C=CCC4(CCC(C)(C5CCC(O)(CC)C(C)O5)O4)O3)C(C)CC2C)O1", "note": "(stereo not drawn) [Deoxy-(0-8)-epi-17-salinomycin, 6-[5-[2'-(5\"-Ethyltetrahydro-5\"-hydroxy-6\"-methyl-(2\"H)-pyran-2\"-yl]-2' ,12' ,14'-trimethyl-1',10' ,15'-trioxadispiro[4.3.5.1]pentadec-7'-en-11'-yl]-5-ethyl-1,3-dimethyl-2-hydroxy-4-oxopentyl]-alpha-ethyl-tetrahydro-5-methyl-(2H)-pyran-2-acetic acid]", "values": [{"measurement": "MIC", "setting": "Actinomyces cellulosae", "result": 250, "unit": "µg/mL"}, {"measurement": "MIC", "setting": "Bacillus megaterium", "result": 6.25, "unit": "µg/mL"}, {"measurement": "MIC", "setting": "Bacillus sp. E", "result": 6.25, "unit": "µg/mL"}, {"measurement": "MIC", "setting": "Bacillus sp. TA", "result": 6.25, "unit": "µg/mL"}, {"measurement": "MIC", "setting": "Bacillus subtilis", "result": 6.25, "unit": "µg/mL"}, {"measurement": "MIC", "setting": "Candida albicans", "result": 2000, "unit": "µg/mL"}, {"measurement": "MIC", "setting": "Mycobacterium phlei", "result": 500, "unit": "µg/mL"}, {"measurement": "MIC", "setting": "Paecilomyces varioti", "result": 15.7, "unit": "µg/mL"}, {"measurement": "MIC", "setting": "Sarcina lutea", "result": 25, "unit": "µg/mL"}, {"measurement": "MIC", "setting": "Staphylococcus aureus", "result": 25, "unit": "µg/mL"}, {"measurement": "antihypertensive activity (in words)", "setting": "DOCA-Na. rat; DOCA-Na rat, oral, five-day period", "result": "exhibited antihypertensive activity"}, {"measurement": "Duration of Effect", "setting": "DOCA-Na. rat; [2]", "result": 4, "unit": "days"}, {"measurement": "Onset to Max. Response", "setting": "DOCA-Na. rat; [2]", "result": 3, "unit": "days"}, {"measurement": "LD50", "setting": "[1]", "result": "> 1000", "unit": "mg/kg"}]}
